Assay results published in patent US20120277265A1, “NOVEL POLYQUINOLINE DERIVATIVES AND THE THERAPEUTIC USE THEREOF” (CENTRE NATIONAL DE LA RECHERCHE SCIENTIFIQUE (C.N.R.S.), priority 2005, published 2012).

Columns and labels:
[1] = UV-visible spectrophotometric titration with CuCl2 (metal/ligand stoichiometry); type: binding; conditions: 15 μM ligand; Tris-HCl buffer pH 7.4/organic solvent, per ligand as in Table 3 column Solvent
Experimental: (§1) An organic solvent (CH3OH, dioxane or DMSO) was added in order to achieve good solubility of the ligands and metal complexes in the concentrations used in these experiments. Exact proportions of the organic solvent/buffer mixture are specified for each UV-visible characterisation of the different ligands or metal complexes.
(§2) Aliquot portions of concentrated CuCl2 or ZnCl2 solutions (M) are added to a 15 μM ligand solution so as to induce only negligible variations in volume. After each addition, changes in absorption spectra are observed immediately and are consistent between two additions, which corresponds to a rapid complexing process. The exact absorption values relating to each ligand and the copper(II) or zinc(II) complexes thereof are detailed hereinafter in the Experimental part (in the Synthesis part for ligands and hereinafter for the metal complexes).
(§3) The stoichiometry of the different ligands (L) for Cu(II) or ZN(II) have therefore been determined spectrophotometrically by metal ion titration. In this example, for an M/L ratio increasing from 0 to 1, π→π* with transition, centred at 251 nm for the free ligand, is shifted to a lower energy with a concomitant appearance of an absorption band in the visible region of the spectrum (λmax to 383 nm), which is probably the result of an MLCT transition. For greater M/L ratios, no additional change in the UV-visible absorption spectra is observed.

[2] = biological target: T1, Aβ1-42 (Homo sapiens, UniProt P05067); experiment: Inhibition of the precipitation of Aβ1-42 by the addition of ligand (Micro BCA assay of soluble/aggregated peptide); type: biochemical; conditions: Aβ1-42 5 μM, pH 7.4; for CuCl2 % soluble Aβ: 20 μM CuCl2, 1 h 37° C. then 1 h with 200 μM ligand; for FeCl3 % soluble Aβ: 20 μM FeCl3, 1 h 37° C. then 1 h with 200 μM ligand; for ZnCl2 % soluble Aβ: 20 μM ZnCl2, 1 h 37° C. then 1 h with 200 μM ligand; for without metal % soluble Aβ: no metal salt, 1 h 37° C. then 1 h with 200 μM ligand
T1 construct: The β-amyloid peptide Aβ1-42 (Aβ1-42) was synthesised, purified (to a purity greater than 95%); made in house; host or cells: chemical peptide synthesis (no expression host)
T1 sequence (P05067 672-713): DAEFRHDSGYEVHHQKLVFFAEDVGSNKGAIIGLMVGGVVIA
Experimental: After a further hour of incubation, the reaction mixture is centrifuged.
Before use, the water [of Milli-Q Millipore quality] and all buffer solutions were treated on Chelex-100 resin (Biorad) (5 mg/ml) and filtered through 0.2 μm filters (Whatman) to remove potential traces of metal ions or particles.
Working solutions of the peptide were prepared by solubilising 1 mg of lyophilised peptide in 500 μl of water and 500 μl of an aqueous NaOH solution pH=12.0, while stirring in a Thermomixer Comfort (Eppendorf). The peptide preparations are subsequently centrifuged for 10 minutes at 9,000 rpm and the supernatant is used as an “Aβ stock” solution. The concentration of peptide in the “Aβ stock” is determined immediately by colorimetric assay using a Micro BCA Protein Assays kit (Pierce) from standard ranges produced using known amounts of bovine serum albumin (BSA) then the Aβ1-42 peptide solution is aliquoted and frozen rapidly in liquid nitrogen prior to being stored at −20° C. until being used.
Salts are generated by adding one hydrochloric acid equivalent per nitrogen group equivalent of the ligand dissolved in DMSO. After evaporation of the solvent, these salts are dissolved at the desired concentration with DMSO and kept at −20° C. until they are used.
The protocol was established from works by: C. S. Atwood et al., J. Neurochem. […] The final concentrations are given. 500 μl of Aβ1-42 (5 μM is set to aggregate in 20 mM Tris-HCl buffer containing 150 mM NaCl (pH=7.4) for 1 hour at 37° C. while stirring at 1,400 rpm in the absence or presence of metal ions: CuCl2, ZnCl2 or FeCl3 (20 μM). Then 50 pi of ligand to be tested (200 μM) dissolved in DMSO are added and the samples are incubated for 1 further hour at 37° C. while stirring at 1,400 rpm. The samples without ligand also receive 50 μl of DMSO. The samples (final volume=550 μ) are subsequently centrifuged for 20 min at 9,000 rpm, and 500 μl of supernatant are removed. The tube containing the precipitation pellet then receives 450 μl of assay buffer/DMSO mixture (91/9, v/v). […] Quantification is carried out on the basis of standard BSA ranges. The amounts of Aβ1-42 actually contained in the pellet and the supernatant are obtained after a correction due to the presence of a residual portion of supernatant in the pellet-containing fraction.
For the control experiments with derivatives comprising a single quinoline residue, […] of ligand were added because complexes of type L2Cu are conventionally used in these cases.

[3] = Hydrogen peroxide produced by Aβ1-42 in the presence of CuCl2, ascorbate, air and ligand (Amplex Red H2O2/HRP); type: biochemical; conditions: CuCl2 0.4 μM, ascorbate 10 μM, air
Experimental: (§4) FIG. 11: Variation in H2O2 production by copper complexes of Aβ1-42 peptide as a function of the Cu(II)/Aβ stoichiometry. Experiments are carried out for 5 minutes in a sodium phosphate buffer (pH=7.4) in the presence 0.4 μM CuCl2, 10 μM ascorbate and air with or without 0.4 μM of 3 or 7. The H2O2 released is quantified by means of an Amplex-Red H2O2/HRP Assay kit.
(§5) The final concentrations are given. The reactions were carried out in the dark in mM sodium phosphate buffer (pH=7.4). Aβ1-42 (0.2 μM) and CuCl2 (0.4 μM) were pre-incubated for 1 hour at 37° C. while stirring at 1,400 rpm in 375 μl of buffer. Then 2 μl of a solution of ligand to be investigated (0.2; 0.4 or 0.8 μM) in DMSO were added. After incubation for a further hour, 2 μl of an aqueous sodium ascorbate solution (10 μM) were added and incubation was continued for 5 min while stirring. The amount of H2O2 produced is then quantified using an Amplex Red H2O2/HRP Assay Kit (Molecular Probes) while adding a volume of assay reagent to the samples, then incubating them for 1 hour at 37° C. while stirring at 500 rpm. […] Quantification is carried out on the basis of standard curves obtained with known amounts of H2O2.
(§6) The figures in the tables correspond to the amount of H2O2 (expressed in nanomoles) added using an Amplex Red H2O2/HRP Assay kit.

[4] = biological target: T2, copper complexes of Aβ1-42 peptide (Homo sapiens, UniProt P05067); experiment: as above; type: biochemical; conditions: CuCl2 0.4 μM, ascorbate 10 μM, air
T2 construct: The β-amyloid peptide Aβ1-42 (Aβ1-42) was synthesised, purified (to a purity greater than 95%); made in house; host or cells: chemical peptide synthesis (no expression host)
T2 sequence (P05067 672-713 limits assumed, one chain of several): as the sequence (P05067 672-713) above
Experimental: as §4, §5, §6

[5] = Determination of log D7.4 (1-octanol / Tris-HCl buffer); type: physicochemical; conditions: 1-octanol / 20 mM Tris-HCl buffer containing 150 mM NaCl (pH = 7.4) (1/1, v/v)
Experimental: The ligand (2.0 mg) is dissolved in 2 ml of 1-octanol then 2 ml of 20 mM Tris-HCl buffer, pH=7.4 containing 150 mM NaCl are added. After mixing in a vortex for 3 min at ambient temperature, followed by centrifugation for 5 min at 9,000 rpm, the concentration of the ligand in each phase is determined by UV-visible spectrophotometry. The 1-octanol fractions are thus redivided until reproducible values of coefficient of division of obtained. This coefficient is expressed as the decimal logarithm of [(the concentration of ligand contained in the 1-octanol phase)/(the concentration of ligand contained in the buffered aqueous phase)]=log D7.4. Measurements were taken three times.

[6] = Competition reaction between ligand (Ls), CuCl2 and competing chelator (Lc), UV-visible; affinity constants; conditions: Ls/CuCl2/Lc 1/1/1 at 15 μM; solvent per ligand as in Table 3
[7] = UV-visible spectrophotometric titration with ZnCl2 (metal/ligand stoichiometry); type: binding; conditions: 15 μM ligand; Tris-HCl buffer pH 7.4/organic solvent, per ligand as in Table 3 column Solvent
Experimental: as §1, §2, §3

[8] = Competition reaction between ligand (Ls), ZnCl2 and competing chelator (Lc), UV-visible; affinity constants; type: binding; conditions: Ls/ZnCl2/Lc 1/1/1 at 15 μM; solvent per ligand as in Table 3
Experimental: An organic solvent (CH3OH, dioxane or DMSO) was added in order to achieve good solubility of all the ligands and metal complexes in the concentrations used in these experiments.
As the concentration [MLs]=x % of C is measured on the UV-visible spectra, the concentrations [Ls]=(1−x) % of C, [MLc]=(1−x) % of C and [Lc]=x % of C can be deduced therefrom and:
In these conditions, [MLs]=[MLc]; [MLs]+[Lc]=Y, y≧50 and:
When log Ks 6, these equations are not used since the percentages of metal ion which is free in the solution or chelated by the solvent or the buffer are not negligible.

[9] = tested on: Salmonella tiphimurium TA98; experiment: AMES test, TA98; conditions: value per plate
Description: (§7) AMES test: The method is adapted from D. M. Maron and B. N. Ames, Mutat.
(§8) The test involves evaluating the potential of the tested molecules to induce mutation which is reverse to the histidine locus of these lines. These two lines were provided by Dr. Bruce N. Ames (University of California, Berkeley, USA). They are resistant to Ampicillin and sensitive to Tetracycline. They are not mutant toward rfa, UvγV and UvγA. The line TA98 (his D3052) contains a mutation of reading phase (GC) whereas the line TA100 (his G46) contains a substitution of base pair (GC).
(§9) The compounds to be tested were dissolved in 100% of DMSO (the solvent) and diluted logarithmically (by a factor of 10) so as to obtain 4 test concentrations of 30,000; 3,000; 300 and 30 μg/ml. Each series of 0.1 ml of stock solution to be tested, 0.1 ml of test line and of culture medium with or without 0.5 ml of enzymatic homogenate (S9) of rat liver microsome were mixed with 2 ml of molten agarose (containing 0.5 mM of histidine and 0.5 mM of biotin). This mixture was placed on the surface of a plate of minimal agarose glucose medium (30 ml for each Petri dish) so as to obtain final concentrations of compound to be tested of 3,000; 300; 30 and 3 μγ/plate. The plates were then incubated at 37° C. for 48 hours. […] The revertant colonies of the test lines were counted using a colony counter (Sigma). […] A compound inducing a number of colonies <50% of cells obtained for the solvent alone was deemed to be toxic for the bacteria tested. All the experiments were carried out in triplicate.

[10] = tested on: Salmonella tiphimurium TA100; experiment: AMES test, TA100; conditions: value per plate
Description: as §7, §8, §9

Compound: CCCCN(c1ccc2cccc(N)c2n1)c1ccc2cccc(N)c2n1 [Compound 23, N-butyl-2,2′-imino-bis(8-quinolineamine)]
- Complex observed by titration with Cu^II (observed L/Cu(II) stoichiometry) [1]: LCu^II(1/1)
- CuCl2 % soluble Aβ [2]: 60 ± 4%
- FeCl3 % soluble Aβ [2]: 62%
- ZnCl2 % soluble Aβ [2]: 58 ± 4%
- without metal % soluble Aβ [2]: 73%
- amount of H2O2, without Aβ1-42 ([3]; ligand 1 eq/Cu(II) (0.4 μM)): 0.65 nmol
- amount of H2O2, 0.2 μM Aβ1-42 Cu/Aβ = 2 ([4]; ligand 1 eq/Cu(II) (0.4 μM)): 0.69 nmol
- amount of H2O2, 0.5 μM Aβ1-42 Cu/Aβ = 0.75 ([4]; ligand 1 eq/Cu(II) (0.4 μM)): 0.49 nmol
- logD at 3 min [5]: 2.5 ± 0.1
- percentage of the CuLs species at equilibrium, competing ligand EDTA [6]: 30%

Compound: Oc1cccc2ccc(CCCCc3ccc4cccc(O)c4n3)nc12 [Compound 10, 2,2′-(1,4-Butanediyl)-bis(8-hydroxyquinoline)]
- Complex observed by titration with Cu^II (observed L/Cu(II) stoichiometry) [1]: LCu^II(1/1)
- Complex observed by titration with Zn^II (observed L/Zn(II) stoichiometry) [7]: LZn^II(1/1)
- percentage of ZnLs species at equilibrium, competing ligand EDTA [8]: 45%
- CuCl2 % soluble Aβ [2]: 42%
- FeCl3 % soluble Aβ [2]: 43%
- ZnCl2 % soluble Aβ [2]: 43%
- without metal % soluble Aβ [2]: 52%
- logD at 3 min [5]: 3.8 ± 0.1
- percentage of the CuLs species at equilibrium, competing ligand EDTA [6]: 45%

Compound: Oc1c(I)cc(Cl)c2cccnc12 [Clioquinol, reference compound]
- CuCl2 % soluble Aβ [2]: 55 ± 3%
- FeCl3 % soluble Aβ [2]: 51%
- ZnCl2 % soluble Aβ [2]: 37%
- without metal % soluble Aβ [2]: 63%
- amount of H2O2, without Aβ1-42 ([3]; ligand 1 eq/Cu(II) (0.4 μM)): 2.07 nmol
- amount of H2O2, without Aβ1-42 ([3]; ligand 2 eq/Cu(II)): 0.54 nmol
- amount of H2O2, 0.2 μM Aβ1-42 Cu/Aβ = 2 ([4]; ligand 1 eq/Cu(II) (0.4 μM)): 0.89 ± 0.08 nmol
- amount of H2O2, 0.5 μM Aβ1-42 Cu/Aβ = 0.75 ([4]; ligand 1 eq/Cu(II) (0.4 μM)): 0.64 nmol
- amount of H2O2, 0.2 μM Aβ1-42 Cu/Aβ = 2 ([4]; ligand 2 eq/Cu(II)): 0.78 ± 0.06 nmol
- amount of H2O2, 0.5 μM Aβ1-42 Cu/Aβ = 0.75 ([4]; ligand 2 eq/Cu(II)): 0.57 nmol
- logD at 3 min [5]: 3.8 ± 0.1
- TA98 Cytotoxicity ([9]; Addition of S9: no): 300 µg
- TA98 Cytotoxicity ([9]; Addition of S9: yes): 300 µg
- TA100 Cytotoxicity ([10]; Addition of S9: no): 30 µg
- TA100 Cytotoxicity ([10]; Addition of S9: yes): 30 µg
